From the supplement of paper PMC10627819

Columns and labels:
[1] = test system: S. aureus Newman; experiment: Bliss interaction score (quartile over a dose matrix) (fitness difference); higher = more antagonism (negative = synergy)
Summary of the method: (§1)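 Quartiles summarise the Bliss score over technical, biological and donor/recipient replicates, where the score is observed minus expected fitness under a product model. Expected fitness uses single-drug values inferred from combination data. Fitness is OD595 at entry into stationary phase over the plate's robust no-drug mean, capped at 1.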

[2] = test system: B. subtilis 168; experiment: as above
Summary of the method: as §1

[3] = test system: S. aureus DSM 20231; experiment: as above
Summary of the method: as §1

[4] = test system: S. pneumoniae D39V; experiment: as above
Summary of the method: as §1

[5] = test system: S. aureus Newman; experiment: fitness (endpoint OD595 vs no drug) (fraction); higher = more growth
Summary of the method: (§2)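 Plates with 384 wells were inoculated at OD595 0.01 using 30 µl of TSB, LB Lennox or CY, or 55 µl for S. pneumoniae. Incubation was at 37 °C, with OD595 measured every 30 min for 14 h. Fitness is the stationary-phase transition optical density over the robust mean of no-drug control wells, after first-reading background subtraction; it is capped at 1.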

[6] = test system: B. subtilis 168; experiment: as above
Summary of the method: as §2

[7] = test system: S. pneumoniae D39V; experiment: as above
Summary of the method: as §2
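Wherever Bliss interaction score (quartile over a dose matrix) is given: first quartile when negative (synergy) and third quartile when positive (antagonism).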

O=C(N[C@H](CO)[C@H](O)c1ccc([N+](=O)[O-])cc1)C(Cl)Cl [Chloramphenicol] + C/C(=C\C(=O)OCCCCCCCCC(=O)O)C[C@@H]1OC[C@H](C[C@@H]2O[C@H]2[C@@H](C)[C@H](C)O)[C@@H](O)[C@H]1O [Pseudomonic acid]
Conditions | Bliss interaction score
[1] | 0.0532
[2] | 0.0522
[3] | 0.0264
[4] | 0.172

fitness, [5], one replicate
Conditions | first compound 0.75 µg/mL | first compound 1.5 µg/mL | first compound 3 µg/mL
partner 0.0313 µg/mL | 0.0723 | 0.0644 | 0.0687
partner 0.0625 µg/mL | 0.0337 | 0.0381 | 0.0484
partner 0.125 µg/mL | 0.062 | 0.0655 | 0.0652

O=C(N[C@H](CO)[C@H](O)c1ccc([N+](=O)[O-])cc1)C(Cl)Cl [Chloramphenicol] + CN(C)c1cc(NC(=O)CNC(C)(C)C)c(O)c2c1C[C@H]1C[C@H]3[C@H](N(C)C)C(O)=C(C(N)=O)C(=O)[C@@]3(O)C(O)=C1C2=O [Tigecycline]
Conditions | Bliss interaction score
[1] | -0.0583
[2] | -0.0487
[3] | -0.0788
[4] | -0.114

fitness, [5]
Conditions | first compound 0.75 µg/mL | first compound 1.5 µg/mL | first compound 3 µg/mL
partner 0.039 µg/mL | 0.789 | 0.509 | 0.216
partner 0.078 µg/mL | 0.831 | 0.559 | 0.2
partner 0.156 µg/mL | 0.829 | 0.58 | 0.213

O=C(N[C@H](CO)[C@H](O)c1ccc([N+](=O)[O-])cc1)C(Cl)Cl [Chloramphenicol] + CN[C@@H]1[C@H](O[C@H]2[C@H](O[C@H]3[C@H](O)[C@@H](O)[C@H](N=C(N)N)[C@@H](O)[C@@H]3N=C(N)N)O[C@@H](C)[C@]2(O)C=O)O[C@@H](CO)[C@H](O)[C@H]1O [Streptomycin]
Conditions | Bliss interaction score
[1] | -0.0754
[2] | 0.144
[3] | 0.0438
[4] | -0.0647

fitness, [5]
Conditions | first compound 0.75 µg/mL | first compound 1.5 µg/mL | first compound 3 µg/mL
partner 1 µg/mL | 0.755 | 0.537 | 0.213
partner 2 µg/mL | – | 0.465 | 0.177
partner 4 µg/mL | – | – | 0.128

O=C(N[C@H](CO)[C@H](O)c1ccc([N+](=O)[O-])cc1)C(Cl)Cl [Chloramphenicol] + O=C(O)c1cn(C2CC2)c2cc(N3CCNCC3)c(F)cc2c1=O [Ciprofloxacin]
Conditions | Bliss interaction score
[1] | 0.126
[2] | 0.161
[3] | 0.0505
[4] | -0.0621

fitness, [5]
Conditions | first compound 0.75 µg/mL | first compound 1.5 µg/mL | first compound 3 µg/mL
partner 0.0375 µg/mL | 0.644 | 0.487 | 0.154
partner 0.075 µg/mL | 0.621 | 0.496 | 0.182
partner 0.15 µg/mL | 0.155 | 0.212 | –

CCC[C@@H]1C[C@@H](C(=O)N[C@@H]([C@H]2O[C@H](SC)[C@H](O)[C@@H](O)[C@H]2O)[C@H](C)Cl)N(C)C1 [Clindamycin] + C[C@H]1c2cccc(O)c2C(=O)C2=C(O)[C@]3(O)C(=O)C(C(N)=O)=C(O)[C@@H](N(C)C)[C@@H]3[C@@H](O)[C@@H]21 [Doxycycline]
Conditions | Bliss interaction score
[1] | -0.135
[2] | -0.184
[3] | -0.0562
[4] | -0.151

fitness, one replicate
Conditions | partner 0.003875 µg/mL | partner 0.00775 µg/mL | partner 0.02 µg/mL | partner 0.031 µg/mL | partner 0.04 µg/mL | partner 0.062 µg/mL | partner 0.08 µg/mL
[6], first compound 0.0039 µg/mL | – | – | 0.97 | – | 0.891 | – | 0.677
[6], first compound 0.0078 µg/mL | – | – | 0.831 | – | 0.781 | – | 0.515
[6], first compound 0.0156 µg/mL | – | – | 0.824 | – | 0.743 | – | 0.235
[7], first compound 0.015 µg/mL | 0.934 | 0.931 | – | 0.803 | – | 0.567 | –
[7], first compound 0.03 µg/mL | 0.778 | 0.777 | – | 0.588 | – | 0.359 | –
[7], first compound 0.06 µg/mL | 0.714 | 0.743 | – | 0.405 | – | 0.163 | –

Conditions | fitness
[6], first compound 0.0625 µg/mL, partner 0.04 µg/mL | 0.406
[6], first compound 0.0625 µg/mL, partner 0.08 µg/mL | 0.0499
[6], first compound 0.125 µg/mL, partner 0.02 µg/mL | 0.389
[6], first compound 0.125 µg/mL, partner 0.04 µg/mL | 0.164
[6], first compound 0.125 µg/mL, partner 0.08 µg/mL | 0.0428
[6], first compound 0.25 µg/mL, partner 0.02 µg/mL | 0.293
[6], first compound 0.25 µg/mL, partner 0.04 µg/mL | 0.11
[6], first compound 0.25 µg/mL, partner 0.08 µg/mL | 0.0404
[7], first compound 0.0125 µg/mL, partner 0.0155 µg/mL | 0.451
[7], first compound 0.0125 µg/mL, partner 0.031 µg/mL | 0.35
[7], first compound 0.0125 µg/mL, partner 0.062 µg/mL | 0.114
[7], first compound 0.015 µg/mL, partner 0.0155 µg/mL | 0.876
[7], first compound 0.025 µg/mL, partner 0.0155 µg/mL | 0.28
[7], first compound 0.025 µg/mL, partner 0.031 µg/mL | 0.245
[7], first compound 0.025 µg/mL, partner 0.062 µg/mL | 0.078
[7], first compound 0.03 µg/mL, partner 0.0155 µg/mL | 0.745
[7], first compound 0.05 µg/mL, partner 0.0155 µg/mL | 0.0637
[7], first compound 0.05 µg/mL, partner 0.031 µg/mL | 0.0376
[7], first compound 0.05 µg/mL, partner 0.062 µg/mL | 0.073
[7], first compound 0.06 µg/mL, partner 0.0155 µg/mL | 0.577

O=C(O[C@@H]1Cc2c(O)cc(O)cc2O[C@@H]1c1cc(O)c(O)c(O)c1)c1cc(O)c(O)c(O)c1 [EGCG] + CCC(C)C1C(=O)NC(=C)C(=O)NC(C(=O)NC(CSCC(C(=O)N1)NC(=O)/C(=C/C)/NC(=O)C(C(C)CC)N)C(=O)NC2C(SCC(NC(=O)CNC(=O)C3CCCN3C2=O)C(=O)NC(CCCCN)C(=O)NC4C(SCC(NC(=O)CNC(=O)C(NC(=O)C(NC(=O)C(NC(=O)CNC4=O)C)CC(C)C)CCSC)C(=O)NC(CC(=O)N)C(=O)NC(CCSC)C(=O)NC(CCCCN)C(=O)NC5C(SCC6C(=O)NC(C(=O)NC(CSC(C(C(=O)N6)NC(=O)C(NC5=O)C)C)C(=O)NC(CO)C(=O)NC(C(C)CC)C(=O)NC(CC7=CN=CN7)C(=O)NC(C(C)C)C(=O)NC(=C)C(=O)NC(CCCCN)C(=O)O)CC8=CN=CN8)C)C)C)CC(C)C [Nisin]
main component drawn
Conditions | Bliss interaction score
[1] | 0.134
[2] | -0.0674
[3] | 0.165
[4] | 0.11

fitness, main component drawn
Conditions | first compound 6.25 µg/mL | first compound 12.5 µg/mL | first compound 25 µg/mL | first compound 50 µg/mL
[6], partner 0.5 µg/mL | 0.853 | 0.761 | – | –
[6], partner 1 µg/mL | 0.813 | 0.619 | – | –
[6], partner 2 µg/mL | 0.432 | 0.308 | 0.21 | –
[7], partner 0.4275 µg/mL | – | 0.965 | 0.967 | 0.982
[7], partner 0.855 µg/mL | – | 0.989 | ≥ 1 | ≥ 1
[7], partner 1.6 µg/mL | – | 0.0156 | 0.0307 | –
[7], partner 1.71 µg/mL | – | 0.105 | 0.131 | 0.244
[7], partner 3.2 µg/mL | – | 0.0612 | – | –
[7], partner 6.4 µg/mL | – | 0.08 | 0.046 | 0.0006

fitness, [6], one replicate, main component drawn
Conditions | partner 1.25 µg/mL | partner 1.6 µg/mL | partner 2.5 µg/mL | partner 3.2 µg/mL | partner 4 µg/mL | partner 5 µg/mL | partner 6.4 µg/mL | partner 8 µg/mL | partner 16 µg/mL
first compound 6.25 µg/mL | ≥ 1 | 0.616 | 0.682 | 0.0933 | 0.0068 | 0.154 | 0.0135 | 0.069 | 0.0181
first compound 12.5 µg/mL | 0.625 | 0.199 | 0.282 | 0.0301 | 0.0461 | 0.0396 | 0.0233 | 0.0351 | 0.0262
first compound 25 µg/mL | 0.247 | 0.0657 | 0.0742 | 0.0436 | 0.0163 | 0.0343 | 0.0151 | 0.044 | 0.0094

O=C(O[C@@H]1Cc2c(O)cc(O)cc2O[C@@H]1c1cc(O)c(O)c(O)c1)c1cc(O)c(O)c(O)c1 [EGCG] + CN(C)C(=O)C(CCN1CCC(O)(c2ccc(Cl)cc2)CC1)(c1ccccc1)c1ccccc1 [Loperamide]
Conditions | Bliss interaction score
[1] | -0.0758
[2] | -0.097
[3] | 0.183
[4] | 0.0701

fitness
Conditions | first compound 6.25 µg/mL | first compound 12.5 µg/mL | first compound 25 µg/mL | first compound 50 µg/mL
[6], partner 25 µg/mL | – | – | 0.0734 | –
[6], partner 50 µg/mL | – | 0.0521 | 0.0237 | –
[6], partner 100 µg/mL | 0.0302 | 0.0337 | 0.0599 | –
[7], partner 17.14 µg/mL | – | 0.91 | 0.921 | 0.965
[7], partner 20 µg/mL | – | 0.988 | ≥ 1 | 0.991
[7], partner 34.28 µg/mL | – | 0.895 | 0.982 | 0.992
[7], partner 40 µg/mL | – | 0.984 | ≥ 1 | ≥ 1

[7], partner 68.57 µg/mL, one replicate
Conditions | fitness
first compound 12.5 µg/mL | 0.491
first compound 25 µg/mL | 0.958
first compound 50 µg/mL | 0.891

O=C(O[C@@H]1Cc2c(O)cc(O)cc2O[C@@H]1c1cc(O)c(O)c(O)c1)c1cc(O)c(O)c(O)c1 [EGCG] + C[C@H]1COc2c(N3CCN(C)CC3)c(F)cc3c(=O)c(C(=O)O)cn1c23 [Levofloxacin]
Conditions | Bliss interaction score
[1] | -0.0447
[2] | -0.0322
[3] | -0.055
[4] | -0.092

fitness, [6], one replicate
Conditions | first compound 6.25 µg/mL | first compound 12.5 µg/mL | first compound 25 µg/mL
partner 0.001 µg/mL | 0.993 | 0.712 | 0.276
partner 0.0078 µg/mL | 0.88 | 0.788 | 0.668

fitness
Conditions | first compound 6.25 µg/mL | first compound 12.5 µg/mL | first compound 25 µg/mL | first compound 50 µg/mL
[6], partner 0.002 µg/mL | 0.941 | – | – | –
[6], partner 0.0039 µg/mL | 0.89 | 0.629 | – | –
[6], partner 0.0312 µg/mL | 0.05 | 0.038 | 0.0206 | –
[6], partner 0.0625 µg/mL | 0.0332 | 0.0286 | 0.0506 | –
[6], partner 0.125 µg/mL | 0.058 | 0.0419 | 0.0505 | –
[7], partner 0.1725 µg/mL | – | 0.876 | 0.815 | 0.868
[7], partner 0.2 µg/mL | – | 0.925 | 0.904 | 0.845
[7], partner 0.345 µg/mL | – | 0.804 | 0.733 | 0.897
[7], partner 0.4 µg/mL | – | 0.832 | 0.826 | 0.671
[7], partner 0.69 µg/mL | – | – | 0.777 | –
[7], partner 0.8 µg/mL | – | 0.333 | 0.262 | 0.337
